Results published in ChEMBL document CHEMBL4406799, “Identification of benzo[cd]indol-2(1H)-ones as novel Atg4B inhibitors via a structure-based virtual screening and a novel AlphaScreen assay” (Eur J Med Chem, 2019).
Active and inactive are the calls of the source. No cut-off for these calls is given here.

Legend:
Cysteine protease ATG4B [1] = biological target: T1, Cysteine protease ATG4B (Homo sapiens, UniProt Q9Y4P1); experiment: Inhibition of ATG4B (unknown origin) using N-(His)6-LC3B(L123C)Biotin as substrate preincubated for 30 mins and measured after 1 hr by AlphaScreen method
T1 sequence (Q9Y4P1 whole entry): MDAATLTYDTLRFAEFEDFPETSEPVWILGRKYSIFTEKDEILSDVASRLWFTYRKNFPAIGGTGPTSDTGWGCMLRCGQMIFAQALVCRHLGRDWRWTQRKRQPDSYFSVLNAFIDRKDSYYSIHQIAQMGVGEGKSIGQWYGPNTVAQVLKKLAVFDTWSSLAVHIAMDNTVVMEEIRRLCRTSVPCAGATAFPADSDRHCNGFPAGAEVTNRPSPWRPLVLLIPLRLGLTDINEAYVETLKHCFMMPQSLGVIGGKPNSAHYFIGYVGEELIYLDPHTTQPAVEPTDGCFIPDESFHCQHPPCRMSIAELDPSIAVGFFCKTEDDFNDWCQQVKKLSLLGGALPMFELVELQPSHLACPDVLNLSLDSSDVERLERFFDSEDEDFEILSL

Cysteine protease ATG4B [2] = biological target: T1, Cysteine protease ATG4B; experiment: Inhibition of ATG4B (unknown origin) using N-(His)6-LC3B(L123C) as substrate preincubated for 1 hr followed by substrate addition and measured after 30 mins MS-based analysis
Cysteine protease ATG4B [3] = biological target: T1, Cysteine protease ATG4B; experiment: Inhibition of recombinant ATG4B (unknown origin) expressed in Escherichia coli BL21(DE3) using LC3-PLA2 as substrate by fluoroscence based assay
Papain (Carica papaya) = biological target: T2, Papain (Carica papaya) (UniProt P00784); experiment: Inhibition of papaya papain at 50 uM using L-pyroglutamyl-L-phenylalanyl-L-leucine-p-nitroanilide as substrate measured after 30 mins
T2 sequence (whole entry): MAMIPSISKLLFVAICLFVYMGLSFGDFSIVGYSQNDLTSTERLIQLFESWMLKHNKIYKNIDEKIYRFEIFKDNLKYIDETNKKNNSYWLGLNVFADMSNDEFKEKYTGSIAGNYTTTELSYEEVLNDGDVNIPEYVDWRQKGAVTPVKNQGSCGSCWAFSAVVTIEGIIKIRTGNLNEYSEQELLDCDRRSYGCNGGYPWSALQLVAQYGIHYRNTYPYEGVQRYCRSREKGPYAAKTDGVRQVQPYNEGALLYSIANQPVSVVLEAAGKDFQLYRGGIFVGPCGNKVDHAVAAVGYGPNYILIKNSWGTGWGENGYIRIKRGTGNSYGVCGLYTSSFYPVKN

HT-29 [4] = experiment: Antiproliferative activity against human HT-29 cells assessed as reduction in cell viability at 75 uM in presence of oxaliplatin after 24 to 72 hrs by MTT assay; assay type: functional, cell-based
HT-29 [5] = conditions: Homo sapiens, 100 to 200 uM
Description: Inhibition of autophagic flux in human HT-29 cells assessed as increase in LC3-2 expression at 100 to 200 uM after 16 hrs by Western blot analysis

HT-29 [6] = conditions: Homo sapiens, 100 to 200 uM; remark: listed apart in the source
Description: Inhibition of autophagic flux in human HT-29 cells assessed as reduction in p62 degradation at 100 to 200 uM after 16 hrs by Western blot analysis

| SMILES | IC50 (Cysteine protease ATG4B [1]; read-out: IC50) | IC50 (Cysteine protease ATG4B [2]) | inhibition (Papain (Carica papaya)) | other results |
| --- | --- | --- | --- | --- |
| O=C1Nc2ccc(NCC(O)CCl)c3cccc1c23 (stereo unspecified) | > 300 µM | 280 µM |  |  |
| CCCCC(O)CNc1cc2c3c(cccc3c1)NC2=O (stereo unspecified) | 235 µM | 215 µM |  |  |
| Oc1ccc(C2=Nc3cccc4cccc(c34)N2)cc1 | 300 µM | 150 µM |  |  |
| O=c1oc2c(O)c(O)cc3c(=O)oc4c(O)c(O)cc1c4c23 [ELLAGIC ACID] |  |  |  | IC50 (Cysteine protease ATG4B [3]): 3 µM |
| O=C(N[C@@H](Cc1ccccc1)C(=O)CCl)OCc1ccccc1 |  |  | Active |  |
| CCCCC(O)CNc1cc2c3c(cccc3c1)C(=O)N2 (stereo unspecified) |  |  | inactive | Activity (HT-29 [4]): Active; inhibition (HT-29 [5]): Active; inhibition (HT-29 [6]): Active |
| O=C1NC(=O)c2cc(NCC(O)CCl)cc3cccc1c23 (stereo unspecified) |  |  |  | IC50 (Cysteine protease ATG4B [1]): Not Active |
| C=CCCC(O)CNc1cc2c3c(cccc3c1)NC2=O (stereo unspecified) |  |  |  | IC50 (Cysteine protease ATG4B [1]): Not Active |
| O=C1Nc2cccc3cc(NCC(O)CCl)cc1c23 (stereo unspecified) |  |  | inactive |  |
| O=C(/C=C1/Nc2cc(Cl)c(Cl)cc2NC1=O)N/N=C/c1ccccc1O | 315 µM |  |  |  |
